Data reported in US10336762B2 (priority 2017, dated 2019).

Legend:
TNFα = assay: cells; type: cell-based, human; settings: Homo sapiens, Monocyte, LPS-stimulated human monocytes, TNFα content; read-out: EC50 TNF
IRAK4 enzyme = IRAK4 enzyme (Homo sapiens (Human), UniProt Q9NWZ3); assay: biochemical; type: biochemical; settings: IRAK4 enzyme, 500 μM ATP
Chain of IRAK4 enzyme (Q9NWZ3 whole entry): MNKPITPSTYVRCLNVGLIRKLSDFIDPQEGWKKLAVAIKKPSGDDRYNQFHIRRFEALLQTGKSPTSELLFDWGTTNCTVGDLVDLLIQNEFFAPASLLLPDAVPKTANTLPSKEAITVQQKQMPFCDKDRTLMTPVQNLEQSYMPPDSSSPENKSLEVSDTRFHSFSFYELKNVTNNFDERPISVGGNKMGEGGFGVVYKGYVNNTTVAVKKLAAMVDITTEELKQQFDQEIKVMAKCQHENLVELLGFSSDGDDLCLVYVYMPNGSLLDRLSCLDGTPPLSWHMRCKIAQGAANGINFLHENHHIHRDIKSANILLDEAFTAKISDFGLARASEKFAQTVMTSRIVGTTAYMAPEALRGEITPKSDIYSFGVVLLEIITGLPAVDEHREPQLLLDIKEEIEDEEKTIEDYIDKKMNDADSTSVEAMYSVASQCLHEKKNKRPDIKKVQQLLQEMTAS

Compound | EC50 (TNFα) [nM] | IC50 (IRAK4 enzyme; TR-FRET) [nM] | IC50 (IRAK4 enzyme; TR-FRET (HTRF)) [nM]
COC(=O)NC1CCC(NC(=O)c2cnc(-c3ccc4cc(C#N)cnn34)cc2N[C@H]2CCCC(O)C2)CC1 (stereo partly drawn) [Example 387, methyl ((1S,4r)-4-(6-(3-cyanopyrrolo[1,2-b]pyridazin-7-yl)-4-(((1S,3R)-3-hydroxy-cyclohexyl)amino)nicotinamido)cyclohexyl)carbamate] | 112 | 2 | –
C[C@]1(O)C[C@@H](Nc2cc(-c3ccc4cc(C#N)cnn34)ncc2C(=O)NCC#N)C1 [Example 388, N-(cyanomethyl)-6-(3-cyanopyrrolo[1,2-b]pyridazin-7-yl)-4-(((1s,3s)-3-hydroxy-3-methylcyclobutyl)amino) nicotinamide] | 96 | 1 | –
C[C@]1(O)C[C@H](Nc2cc(-c3ccc4cc(C#N)cnn34)ncc2C(=O)NCC#N)C1 [Example 389, N-(cyanomethyl)-6-(3-cyanopyrrolo[1,2-b]pyridazin-7-yl)-4-(((1r,3r)-3-hydroxy-3-methylcyclobutyl)amino) nicotinamide] | 137 | 3 | –
N#Cc1cnn2c(-c3cc(N[C@H]4CC[C@H](N5CCOC5=O)CC4)c(C(=O)NCC(N)=O)cn3)ccc2c1 [Example 390, N-(2-amino-2-oxoethyl)-6-(3-cyanopyrrolo[1,2-b]pyridazin-7-yl)-4-(((1r,4r)-4-(2-oxooxazolidin-3-yl)cyclohexyl)amino) nicotinamide] | > 10000 | 6 | –
N#CCNC(=O)c1cnc(-c2ccc3cc(C#N)cnn23)cc1N[C@H]1CC[C@H](N2CCOC2=O)CC1 [Example 391, N-(cyanomethyl)-6-(3-cyanopyrrolo[1,2-b]pyridazin-7-yl)-4-(((1r,4r)-4-(2-oxooxazolidin-3-yl)cyclohexyl)amino) nicotinamide] | 33 | < 1 | –
CC(C)(O)[C@H](F)CNC(=O)c1cnc(-c2ccc3cc(C#N)cnn23)cc1N[C@H]1CC[C@H](N2CCOC2=O)CC1 [Example 392, 6-(3-cyanopyrrolo[1,2-b]pyridazin-7-yl)-N-((R)-2-fluoro-3-hydroxy-3-methylbutyl)-4-(((1r,4R)-4-(2-oxooxazolidin-3-yl)cyclohexyl)amino) nicotinamide] | 50 | < 1 | –
CC(C)(O)[C@H](F)CNC(=O)c1cnc(-c2ccc3cc(C#N)cnn23)cc1NC12CCC(C(=O)N3CC(C(F)F)C3)(CC1)CC2 [Example 393, (R)-6-(3-cyanopyrrolo[1,2-b]pyridazin-7-yl)-4-((4-(3-(difluoromethyl)azetidine-1-carbonyl)bicyclo[2.2.2]octan-1-yl)amino)-N-(2-fluoro-3-hydroxy-3-methylbutyl)nicotinamide] | 44 | < 1 | –
CC1(F)CN(C(=O)C23CCC(Nc4cc(-c5ccc6cc(C#N)cnn56)ncc4C(=O)NC[C@@H](F)C(C)(C)O)(CC2)CC3)C1 [Example 394, (R)-6-(3-cyanopyrrolo[1,2-b]pyridazin-7-yl)-N-(2-fluoro-3-hydroxy-3-methylbutyl)-4-((4-(3-fluoro-3-methylazetidine-1-carbonyl)bicyclo[2.2.2]octan-1-yl)amino) nicotinamide] | 68 | 1 | –
CC(C)(O)[C@H](F)CNC(=O)c1cnc(-c2ccc3cc(C#N)cnn23)cc1NC12CCC(C(=O)N3CCN(C4COC4)CC3)(CC1)CC2 [Example 395, (R)-6-(3-cyanopyrrolo[1,2-b]pyridazin-7-yl)-N-(2-fluoro-3-hydroxy-3-methylbutyl)-4-((4-(4-(oxetan-3-yl)piperazine-1-carbonyl)bicyclo[2.2.2]octan-1-yl)amino) nicotinamide] | 256 | 3 | –
COC1CN(C(=O)C23CCC(Nc4cc(-c5ccc6cc(C#N)cnn56)ncc4C(=O)NC[C@@H](F)C(C)(C)O)(CC2)CC3)C1 [Example 396, (R)-6-(3-cyanopyrrolo[1,2-b]pyridazin-7-yl)-N-(2-fluoro-3-hydroxy-3-methylbutyl)-4-((4-(3-methoxyazetidine-1-carbonyl)bicyclo[2.2.2]octan-1-yl)amino) nicotinamide] | 24 | 1 | –
COCCNC(=O)C12CCC(Nc3cc(-c4ccc5cc(C#N)cnn45)ncc3C(=O)NC[C@@H](F)C(C)(C)O)(CC1)CC2 [Example 397, (R)-6-(3-cyanopyrrolo[1,2-b]pyridazin-7-yl)-N-(2-fluoro-3-hydroxy-3-methylbutyl)-4-((4-((2-methoxyethyl)carbamoyl)bicyclo[2.2.2]octan-1-yl)amino)nicotinamide] | 30 | – | 1
CC(C)(O)[C@H](F)CNC(=O)c1cnc(-c2ccc3cc(C#N)cnn23)cc1NC12CCC(C(N)=O)(CC1)CC2 [Example 398, (R)-4-((4-carbamoylbicyclo[2.2.2]octan-1-yl)amino)-6-(3-cyanopyrrolo[1,2-b]pyridazin-7-yl)-N-(2-fluoro-3-hydroxy-3-methyl-butyl)nicotinamide] | 17 | – | < 1
CC(C)(O)[C@H](F)CNC(=O)c1cnc(-c2ccc3cc(C#N)cnn23)cc1NC12CCC(N3CCOC3=O)(CC1)CC2 [Example 399, 6-(3-cyanopyrrolo[1,2-b]pyridazin-7-yl)-N-((R)-2-fluoro-3-hydroxy-3-methylbutyl)-4-((4-(2-oxooxazolidin-3-yl)bicyclo[2.2.2]octan-1-yl)amino)nicotinamide] | 8 | – | < 1
CC(C)(O)[C@H](F)CNC(=O)c1cnc(-c2ccc3cc(C#N)cnn23)cc1NC12CCC(C(=O)N3CC(F)C3)(CC1)CC2 [Example 400, (R)-6-(3-cyanopyrrolo[1,2-b]pyridazin-7-yl)-N-(2-fluoro-3-hydroxy-3-methylbutyl)-4-((4-(3-fluoroazetidine-1-carbonyl)bicyclo[2.2.2]octan-1-yl)amino) nicotinamide] | 21 | – | 1
CC(C)(O)[C@H](F)CNC(=O)c1cnc(-c2ccc3cc(C#N)cnn23)cc1NC12CCC(C(=O)N3CCOCC3)(CC1)CC2 [Example 401, (R)-6-(3-cyanopyrrolo[1,2-b]pyridazin-7-yl)-N-(2-fluoro-3-hydroxy-3-methylbutyl)-4-((4-(morpholine-4-carbonyl)bicyclo[2.2.2]octan-1-yl)amino)nicotinamide] | 65 | – | 2
N#Cc1cnn2c(-c3cc(NC45CCC(O)(CC4)CC5)c(C(=O)NC45CCC(O)(CC4)CC5)cn3)ccc2c1 [Example 402, 6-(3-cyanopyrrolo[1,2-b]pyridazin-7-yl)-N-(4-hydroxybicyclo[2.2.2]octan-1-yl)-4-((4-hydroxy-bicyclo[2.2.2]octan-1-yl)amino)nicotinamide] | 77 | – | 2
CC(C)(O)[C@H](F)CNC(=O)c1cnc(-c2ccc3cc(C#N)cnn23)cc1NC12CCC(O)(CC1)C2 [Example 403, (R)-6-(3-cyanopyrrolo[1,2-b]pyridazin-7-yl)-N-(2-fluoro-3-hydroxy-3-methylbutyl)-4-((4-hydroxybicyclo[2.2.1]heptan-1-yl)amino) nicotinamide] | 14 | – | < 1
[2H]C([2H])([2H])N(C(=O)C12CCC(Nc3cc(-c4ccc5cc(C#N)cnn45)ncc3C(=O)NC[C@@H](F)C(C)(C)O)(CC1)CC2)C([2H])([2H])[2H] [Example 404, (R)-4-((4-(bis(methyl-d3)carbamoyl)bicyclo[2.2.2]octan-1-yl)amino)-6-(3-cyanopyrrolo[1,2-b]pyridazin-7-yl)-N-(2-fluoro-3-hydroxy-3-methylbutyl)nicotinamide] | 11 | – | 1
CC(C)(O)[C@H](F)CNC(=O)c1cnc(-c2ccc3cc(C#N)cnn23)cc1NC12CCC(N3CCC3=O)(CC1)CC2 [Example 405, 6-(3-cyanopyrrolo[1,2-b]pyridazin-7-yl)-N-((R)-2-fluoro-3-hydroxy-3-methylbutyl)-4-((4-(2-oxoazetidin-1-yl)bicyclo[2.2.2]octan-1-yl)amino)nicotinamide] | 12 | – | 1
CC(C)(O)[C@H](F)CNC(=O)c1cnc(-c2ccc3cc(C#N)cnn23)cc1NC12CCC(C(=O)NC3CC3)(CC1)CC2 [Example 406, (R)-6-(3-cyanopyrrolo[1,2-b]pyridazin-7-yl)-4-((4-(cyclopropylcarbamoyl)bicyclo[2.2.2]octan-1-yl)amino)-N-(2-fluoro-3-hydroxy-3-methylbutyl) nicotinamide] | 33 | – | 1
CCNC(=O)C12CCC(Nc3cc(-c4ccc5cc(C#N)cnn45)ncc3C(=O)NC[C@@H](F)C(C)(C)O)(CC1)CC2 [Example 407, (R)-6-(3-cyanopyrrolo[1,2-b]pyridazin-7-yl)-4-((4-(ethyl-carbamoyl)bicyclo[2.2.2]octan-1-yl)amino)-N-(2-fluoro-3-hydroxy-3-methylbutyl)nicotinamide] | 20 | – | 2
CC(C)(O)[C@H](F)CNC(=O)c1cnc(-c2ccc3cc(C#N)cnn23)cc1NC12CCC(C(=O)N3CCC3)(CC1)CC2 [Example 408, (R)-4-((4-(azetidine-1-carbonyl)bicyclo[2.2.2]octan-1-yl)amino)-6-(3-cyanopyrrolo[1,2-b]pyridazin-7-yl)-N-(2-fluoro-3-hydroxy-3-methylbutyl)nicotinamide] | 31 | – | 1
CC(C)(O)[C@H](F)CNC(=O)c1cnc(-c2ccc3cc(C#N)cnn23)cc1NC12CCC(C(=O)N3CC(F)(F)C3)(CC1)CC2 [Example 409, (R)-6-(3-cyanopyrrolo[1,2-b]pyridazin-7-yl)-4-((4-(3,3-difluoroazetidine-1-carbonyl)bicyclo[2.2.2]octan-1-yl)amino)-N-(2-fluoro-3-hydroxy-3-methylbutyl)nicotinamide] | 17 | – | 1
CC(C)(O)[C@H](F)CNC(=O)c1cnc(-c2ccc3cc(C#N)cnn23)cc1NC12CCC(C(=O)NC34CC(C3)C4)(CC1)CC2 [Example 410, (R)-4-((4-(bicyclo[1.1.1]pentan-1-ylcarbamoyl)bicyclo[2.2.2]octan-1-yl)amino)-6-(3-cyano-pyrrolo[1,2-b]pyridazin-7-yl)-N-(2-fluoro-3-hydroxy-3-methylbutyl) nicotinamide] | 50 | – | 2
